We go through 53 compounds from PubChem BioAssay AID488800 (Sanford-Burnham Center for Chemical Genomics, 2010).

Active and inactive are the calls of the source. Cut-off not given; nearly all actives show IC50 up to about 10 µM. A value given as a limit tells only on which side of the number the result lay.

The assay concerns the target yeast expressing human caspase-1/ASC, counter-screen read-out. As to the kind of experiment: interleukin-1beta converting enzyme-PYCARD signal blockade in yeast, concentration-response testing, counterassay for cryopyrin inhibitor project (AID 488800).
For the compound `CC(C)NC(=O)c1c(O)c2ccccc2[nH]c1=O`, the half-inhibitory concentration (IC50) was 1.19 µM. The figure for `O=C(Nc1cccc(Br)c1)c1cc2ccccc2o1` is 3.37 µM; for `CCCCCCCCn1c2c(c(=N)c3ccccc31)CCC2` it is 8.75 µM; for `Brc1ccc(-n2cnc(-c3ccccc3)c2)cc1` it is 10.1 µM.

In the case of `O=C(Nc1ccc(Cl)cc1)Nc1ccc(Cl)c(Cl)c1`, the 50% inhibitory concentration (IC50) is 0.805 µM. The figure for `COc1ccc(NC(=O)C#Cc2ccccc2)cc1` is 1.44 µM; for `O=C(NCCCc1ccccc1)c1c(O)nc2sccn2c1=O` it is 2.42 µM; for `Cc1cccc(C(=O)O/N=C(\N)Cc2cccc3ccccc23)c1` it is 1.72 µM.

`O=C(NC(=S)NNC(=O)c1ccccc1O)c1ccc(F)cc1`: the half-maximal inhibitory concentration (IC50) is 1.82 µM. The figure for `CCC1Nc2ncnc(N3CCN(c4ccccn4)CC3)c2N(Cc2ccc(Cl)cc2)C1=O` (stereo not drawn) is 3.32 µM. Turning to `C[C@@H]1C[C@@H]2O[C@H]2/C=C\C=C\C(=O)Cc2c(Cl)c(O)cc(O)c2C(=O)O1`, the IC50 was 5.66 µM. As to `COc1c(OC(C)=O)c(=O)n2c3ccccc3c3ccnc1c32`, the concentration for half-maximal inhibition (IC50) is 0.665 µM. The figure for `O=c1c2cc(Br)ccc2nc(-c2ccc([N+](=O)[O-])cc2)n1O` is 2.39 µM; for `O=C(CCS(=O)(=O)c1ccccc1)N(CCCN1CCOCC1)c1nc2c(F)cccc2s1` it is 1.05 µM; for `N#Cc1ccc(NC(=O)Nc2ccc(Cl)cc2)cc1` it is 2.98 µM.

`CN(CC(=O)N1CCc2ccccc2C1)c1ccccc1`: the IC50 is 2.22 µM. As for `O=C(Nc1cccc(Cl)c1)c1cc(N=Nc2ccc([N+](=O)[O-])cc2Cl)ccc1O`, the concentration for half-maximal inhibition (IC50) was 0.566 µM. The figure for `CCSc1nsc(NC(=O)Nc2cccc(F)c2)n1` is 1.22 µM; for `Cn1c(=O)c(C(=O)NNC(=O)c2ccccc2F)c(O)c2ccccc21` it is 1.56 µM. Take `Nc1ccc(Oc2cc(N)cc(Oc3ccccc3)c2)cc1`: the IC50 was 4.58 µM. Take `CCOC(=O)N1C(=O)C2(CCCCC2)N(c2ccccc2Cl)C1=S`: the 50% inhibitory concentration (IC50) is 10.6 µM. `CCCOc1ccc(C(=O)NNC(=S)NC(=O)c2cccs2)cc1`: the concentration for half-maximal inhibition (IC50) is 2.93 µM. `CCN(CC)c1ccc2nc3ccc(N)cc3[n+](-c3ccccc3)c2c1`: the IC50 was 1.08 µM. As to `O=c1cc(-c2ccccc2Cl)oc2ccc([N+](=O)[O-])c(O)c12`, the 50% inhibitory concentration (IC50) was 1.89 µM.

As to `Cc1ccc(NC(=O)c2nc(S(=O)(=O)Cc3ccccc3)ncc2Cl)cc1`, the IC50 was 1.67 µM.

Take `COc1ccc(CNC(=O)c2c(C)oc3c2C(=O)c2ccccc2C3=O)cc1`: the IC50 was 3.11 µM. The figure for `Oc1c(/C=N/c2ccccn2)sc2ccccc12` is 3.8 µM; for `CC(=O)N(/N=C1\Sc2ccccc2C1=O)c1ccccc1C` it is 4.55 µM; for `O=C(Nc1cccc(Cl)c1)c1cnn2cccnc12` it is 4.35 µM. With `CCCCCNC(=O)C(=O)C1C(=O)Nc2ccccc21` (stereo not drawn), the IC50 is 1.78 µM.

Regarding `CCN1/C(=C/C=C/c2oc3ccc(-c4ccccc4)cc3[n+]2CC)Oc2ccc(-c3ccccc3)cc21`, the IC50 was 8.93 µM. The figure for `Cn1c(=O)c(C(=O)Nc2ncccn2)c(O)c2ccccc21` is 3.18 µM; for `O=C(NCCC1=CCCCC1)c1c(O)nc2sccn2c1=O` it is 2.24 µM. Turning to `COc1cccc(NC(=O)c2ccccc2)c1`, the IC50 is 4.54 µM.

For `CCN(CC)c1ccc2nc3ccccc3[n+](CC)c2c1`, the 50% inhibitory concentration (IC50) was 6.23 µM. The figure for `O=c1c2ccc(Cl)cc2nc(-c2cccc(C(F)(F)F)c2)n1O` is 2.67 µM; for `CCCCCCCCCn1c2c(c(=N)c3c1CCC3)CCC2` it is 6.26 µM; for `CCOC(=O)c1ccc2c(c1)nc(COc1ccc(OC)cc1)n2CC` it is 9.83 µM. On to `c1ccc(C2Nc3ccccc3C3OCCCC23)cc1` (stereo not drawn), for which the IC50 is 0.881 µM. The figure for `COc1cc(CNCCc2ccccc2)ccc1OCc1ccc(Cl)nc1` is 4.86 µM; for `O=C(NNC(=S)NC(=O)c1ccc(Br)cc1)c1ccc([N+](=O)[O-])cc1` it is > 100 µM (inactive); for `CCC1Nc2ncnc(N3CCN(c4ccccn4)CC3)c2N(Cc2ccc(Br)cc2)C1=O` (stereo not drawn) it is 3.3 µM. Turning to `C=CCc1c(C)nc(C)nc1N/N=C/c1ccccc1O`, the half-inhibitory concentration (IC50) is 9.37 µM. Turning to `O=C(Nc1scc(-c2ccccc2)c1C(=O)O)c1ccc(F)cc1`, the IC50 is 4.03 µM. The figure for `CCCC1CCC(c2ccc(OCC)cc2)=CC1=O` (stereo not drawn) is 4.85 µM. The figure for `c1ccc(Sc2cccc3ccccc23)c(CNC2=NCCN2)c1` is 7.62 µM; for `CN(CCOc1ccccc1)c1ccc(S(=O)(=O)N2CCCCC2)cn1` it is 5.1 µM.

On to `O=c1c2cc(Cl)ccc2nc(-c2ccc([N+](=O)[O-])cc2)n1O`, for which the concentration for half-maximal inhibition (IC50) is 2.7 µM. In the case of `CCCCCC(=O)N1CCN(CCN=CC2=C(O)CC(c3ccco3)CC2=O)CC1` (stereo not drawn), the half-maximal inhibitory concentration (IC50) is 8.62 µM. The figure for `CC(=O)Oc1c(I)cc(I)cc1C(=O)Nc1ccc(Cl)cc1` is 0.813 µM. The figure for `Cc1onc(-c2ccccc2Cl)c1C(=O)N1C=CC(C(F)(F)F)=NCC1` is 6.51 µM; for `CC(N)C(=O)OC(C)(C)Cc1ccc(Cl)cc1` (stereo not drawn) it is 4.3 µM; for `Cc1csc2nc(O)c(C(=O)NCCC3=CCCCC3)c(=O)n12` it is 2.33 µM.
